PubChem BioAssay AID258 (DTP/NCI, 2004)
Where “and” joins values, the source holds several entries; their conditions need not be identical. Equal values may be shown once. Toxic doses and inconclusive results are not listed.

Tested on: CD2F1 mice, L1210 leukemia sc, survival T/C
Experiment: NCI In Vivo Anticancer Drug Screen. Data for tumor model L1210 Leukemia (subcutaneous) in CD2F1 (CDF1) mice
Conditions: endpoint: median survival time, higher = longer survival
Description: The antitumor activity of compounds was measured in mice bearing transplantable tumors. Survival or tumor size were measured and the results are expressed as the measurement made in the treated group (T) divided by the measurement made in the vehicle treated control group (C). The tumor model used in this assay is L1210 Leukemia (subcutaneous) in CD2F1 (CDF1) mice

SMILES: CN(Cc1cnc2nc(N)nc(N)c2n1)c1c(Cl)cc(C(=O)NC(CCC(=O)O)C(=O)O)cc1Br (configuration not stated)
- T/C (dose: 17.0 mg/kg/injection, schedule: Q01DX Z (sc), vehicle: other): 294 % of control and 318 % of control
- T/C (dose: 28.0 mg/kg/injection, schedule: Q01DX Z (sc), vehicle: other): 356 % of control and 511 % of control
- T/C (dose: 46.0 mg/kg/injection, schedule: Q01DX Z (sc), vehicle: other): 350 % of control
- T/C (dose: 47.0 mg/kg/injection, schedule: Q01DX Z (sc), vehicle: other): 838 % of control
- T/C (dose: 47.1 mg/kg/injection, schedule: Q01DX Z (oral), vehicle: other): 200 % of control
- T/C (dose: 76.0 mg/kg/injection, schedule: Q01DX Z (sc), vehicle: other): 262 % of control
- T/C (dose: 78.0 mg/kg/injection, schedule: Q01DX Z (sc), vehicle: other): 250 % of control
- T/C (dose: 78.1 mg/kg/injection, schedule: Q01DX Z (oral), vehicle: other): 183 % of control
- T/C (dose: 126.0 mg/kg/injection, schedule: Q01DX Z (sc), vehicle: other): 193 % of control
- T/C (dose: 130.0 mg/kg/injection, schedule: Q01DX Z (sc), vehicle: other): 172 % of control
- T/C (dose: 130.1 mg/kg/injection, schedule: Q01DX Z (oral), vehicle: other): 172 % of control
- T/C (dose: 216.0 mg/kg/injection, schedule: Q01DX Z (sc), vehicle: other): 150 % of control
- T/C (dose: 216.1 mg/kg/injection, schedule: Q01DX Z (oral), vehicle: other): 166 % of control
- T/C (dose: 360.0 mg/kg/injection, schedule: Q01DX Z (sc), vehicle: other): 155 % of control
- T/C (dose: 360.1 mg/kg/injection, schedule: Q01DX Z (oral), vehicle: other): 161 % of control

SMILES: O=NN(CCF)C(=O)NC1CCCCC1
- T/C (dose: 1.85 mg/kg/injection, schedule: Q01DX Z (sc), vehicle: carboxymethylcellulose (CMC)): 100 % of control
- T/C (dose: 3.75 mg/kg/injection, schedule: Q01DX Z (sc), vehicle: carboxymethylcellulose (CMC)): 111 % of control
- T/C (dose: 7.5 mg/kg/injection, schedule: Q01DX Z (sc), vehicle: carboxymethylcellulose (CMC)): 376 % of control
- T/C (dose: 15.0 mg/kg/injection, schedule: Q01DX Z (sc), vehicle: carboxymethylcellulose (CMC)): 394 % of control
- T/C (dose: 30.0 mg/kg/injection, schedule: Q01DX Z (sc), vehicle: carboxymethylcellulose (CMC)): 211 % of control

SMILES: COc1cccc2c1C(=O)c1c(O)c3c(c(O)c1C2=O)C[C@@](O)(C(=O)CO)C[C@@H]3OC1CC(OC(C)=O)C(OC(C)=O)C(C)O1 (some centres not stated)
- T/C (dose: 1.56 mg/kg/injection, schedule: Q01DX009 (ip), vehicle: distilled water + Tween-80): 106 % of control
- T/C (dose: 1.57 mg/kg/injection, schedule: Q01DX009 (ip), vehicle: distilled water + Tween-80): 105 % of control
- T/C (dose: 3.13 mg/kg/injection, schedule: Q01DX009 (ip), vehicle: distilled water + Tween-80): 105 % of control and 114 % of control
- T/C (dose: 12.5 mg/kg/injection, schedule: Q01DX009 (ip), vehicle: distilled water + Tween-80): 182 % of control and 195 % of control

SMILES: Cc1c(N)nc([C@H](CC(N)=O)NC[C@H](N)C(N)=O)nc1C(=O)N[C@H](C(=O)N[C@H](C)[C@@H](O)[C@H](C)C(=O)N[C@H](C(=O)NCCc1nc(-c2nc(C(=O)NCCC[S+](C)C)cs2)cs1)[C@@H](C)O)C(OC1OC(CO)C(O)C(O)C1OC1OC(CO)C(O)C(OC(N)=O)C1O)c1cnc[nH]1 (some centres not stated)
- T/C (dose: 1.0 mg/kg/injection, schedule: Q01DX009 (ip), vehicle: saline): 100 % of control
- T/C (dose: 2.0 mg/kg/injection, schedule: Q01DX009 (ip), vehicle: saline): 100 % of control and 101 % of control and 107 % of control
- T/C (dose: 2.0 mg/kg/injection, schedule: Q01DX009 (sc), vehicle: saline): 110 % of control
- T/C (dose: 4.0 mg/kg/injection, schedule: Q01DX009 (ip), vehicle: saline): 100 % of control and 105 % of control and 109 % of control
- T/C (dose: 4.0 mg/kg/injection, schedule: Q01DX009 (sc), vehicle: saline): 102 % of control
- T/C (dose: 8.0 mg/kg/injection, schedule: Q01DX009 (ip), vehicle: saline): 100 % of control and 107 % of control and 109 % of control
- T/C (dose: 8.0 mg/kg/injection, schedule: Q01DX009 (sc), vehicle: saline): 102 % of control
- T/C (dose: 16.0 mg/kg/injection, schedule: Q01DX009 (ip), vehicle: saline): 104 % of control and 107 % of control and 112 % of control
- T/C (dose: 16.0 mg/kg/injection, schedule: Q01DX009 (sc), vehicle: saline): 106 % of control
- T/C (dose: 32.0 mg/kg/injection, schedule: Q01DX009 (ip), vehicle: saline): 102 % of control and 109 % of control and 112 % of control
- T/C (dose: 32.0 mg/kg/injection, schedule: Q01DX009 (sc), vehicle: saline): 100 % of control
- T/C (dose: 64.0 mg/kg/injection, schedule: Q01DX009 (ip), vehicle: saline): 112 % of control

SMILES: CC/C(=C(/CC)c1ccc(O)cc1)c1ccc(O)cc1
- T/C (dose: 12.5 mg/kg/injection, schedule: Q01DX009 (ip), vehicle: saline with Tween-80): 103 % of control
- T/C (dose: 12.5 mg/kg/injection, schedule: Q01DX009 (sc), vehicle: saline with Tween-80): 98 % of control
- T/C (dose: 25.0 mg/kg/injection, schedule: Q01DX009 (ip), vehicle: saline with Tween-80): 104 % of control
- T/C (dose: 25.0 mg/kg/injection, schedule: Q01DX009 (sc), vehicle: saline with Tween-80): 98 % of control and 100 % of control
- T/C (dose: 50.0 mg/kg/injection, schedule: Q01DX009 (ip), vehicle: saline with Tween-80): 100 % of control
- T/C (dose: 50.0 mg/kg/injection, schedule: Q01DX009 (sc), vehicle: saline with Tween-80): 102 % of control
- T/C (dose: 100.0 mg/kg/injection, schedule: Q01DX009 (ip), vehicle: saline with Tween-80): 97 % of control
- T/C (dose: 100.0 mg/kg/injection, schedule: Q01DX009 (sc), vehicle: saline with Tween-80): 96 % of control and 97 % of control
- T/C (dose: 200.0 mg/kg/injection, schedule: Q01DX009 (ip), vehicle: saline with Tween-80): 96 % of control
- T/C (dose: 200.0 mg/kg/injection, schedule: Q01DX009 (sc), vehicle: saline with Tween-80): 106 % of control
- T/C (dose: 400.0 mg/kg/injection, schedule: Q01DX009 (sc), vehicle: saline with Tween-80): 101 % of control

SMILES: Nc1cc(=O)[nH][nH]1
- T/C (dose: 108.0 mg/kg/injection, schedule: Q01DX Z (sc), vehicle: saline): 105 % of control
- T/C (dose: 180.0 mg/kg/injection, schedule: Q01DX Z (sc), vehicle: saline): 100 % of control
- T/C (dose: 300.0 mg/kg/injection, schedule: Q01DX Z (sc), vehicle: saline): 100 % of control
- T/C (dose: 500.0 mg/kg/injection, schedule: Q01DX Z (sc), vehicle: saline): 100 % of control
- T/C (dose: 833.0 mg/kg/injection, schedule: Q01DX Z (sc), vehicle: saline): 100 % of control

SMILES: O=C(O)c1[nH]c(=O)[nH]c(=O)c1F
- T/C (dose: 3.0 mg/kg/injection, schedule: Q01DX Z (sc), vehicle: saline): 111 % of control
- T/C (dose: 8.4 mg/kg/injection, schedule: Q01DX Z (sc), vehicle: saline): 177 % of control
- T/C (dose: 14.0 mg/kg/injection, schedule: Q01DX Z (sc), vehicle: saline): 155 % of control
- T/C (dose: 23.0 mg/kg/injection, schedule: Q01DX Z (sc), vehicle: saline): 166 % of control
- T/C (dose: 39.0 mg/kg/injection, schedule: Q01DX Z (sc), vehicle: saline): 155 % of control

SMILES: CC1CN=C(c2ccc(NC(=O)c3ccc(C(=O)Nc4ccc(C5=NCC(C)N5)cc4)cc3)cc2)N1 (configuration not stated)
- T/C (dose: 1.8 mg/kg/injection, schedule: Q01DX Z (sc), vehicle: water): 115 % of control
- T/C (dose: 3.0 mg/kg/injection, schedule: Q01DX Z (sc), vehicle: water): 155 % of control
- T/C (dose: 5.0 mg/kg/injection, schedule: Q01DX Z (sc), vehicle: water): 240 % of control
- T/C (dose: 8.4 mg/kg/injection, schedule: Q01DX Z (sc), vehicle: water): 255 % of control
- T/C (dose: 14.0 mg/kg/injection, schedule: Q01DX Z (sc), vehicle: water): 230 % of control
